Measured values taken from US8455665B2, “3-phenoxymethylpyrrolidine compounds” (Theravance, Inc., priority 2009, dated 2013).
Marks after values point to notes of the source that are not given here.

Tests used:
NET [1] = molecular target: T1, NET (Homo sapiens, UniProt P23975); assay: hNET membrane radioligand binding assay (3H-nisoxetine); design: expressed in transfected cells; host or cells: HEK-293; conditions: hNET membranes (HEK-293), 1.0 nM 3H-nisoxetine; read-out: NET pKi (converted)
Method: (§1) Membrane radioligand binding assays were used to measure inhibition of labeled ligand (^3H-citalopram or ^3H-nisoxetine or ^3H-WIN35428) binding to membranes prepared from cells expressing the respective human recombinant transporter (hSERT or hNET or hDAT) in order to determine the pKi values of test compounds at the transporters.
(§2) Recombinant human embryonic kidney (HEK-293) derived cell lines stably transfected with hSERT or hNET, respectively, were grown in DMEM medium supplemented with 10% dialyzed FBS (for hSERT) or FBS (for hNET), 100 μg/ml penicillin, 100 μg/ml streptomycin, 2 mM L-glutamine and 250 μg/ml of the aminoglycoside antibiotic G418, in a 5% CO2 humidified incubator at 37° C. When cultures reached 80% confluence, the cells were washed thoroughly in PBS (without Ca^2+ and Mg^2+) and lifted with 5 mM EDTA in PBS. Cells were pelleted by centrifugation, resuspended in lysis buffer (10 mM Tris-HCl, pH7.5 containing 1 mM EDTA), homogenized, pelleted by centrifugation, then resuspended in 50 mM Tris-HCl, pH 7.5 and 10% sucrose at 4° C. Protein concentration of the membrane suspension was determined using a Bio-Rad Bradford Protein Assay kit. Membranes were snap frozen and stored at −80° C. Chinese hamster ovary membranes expressing hDAT (CHO-DAT) were purchased from PerkinElmer and stored at −80° C.
(§3) Binding assays were performed in a 96-well assay plate in a total volume of 200 μl assay buffer (50 mM Tris-HCl, 120 mM NaCl, 5 mM KCl, pH 7.4) with 0.5, 1, and 3 μg membrane protein, for SERT, NET and DAT, respectively.
(§4) Stock solutions (10 mM in DMSO) of test compound were prepared and serial dilutions made using Dilution Buffer (50 mM Tris-HCl, 120 mM NaCl, 5 mM KCl, pH 7.4, 0.1% BSA, 400 μM ascorbic acid). Non-specific radioligand binding was determined in the presence of 1 μM duloxetine, 1 μM desipramine or 10 μM GBR12909 (each in Dilution Buffer) for the hSERT, hNET or hDAT assays, respectively.
(§5) Following a 60 minute incubation at 22° C. (or a period sufficient to reach equilibrium), the membranes were harvested by rapid filtration over a 96-well UniFilter GF/B plate, pretreated with 0.3% polyethyleneimine, and washed 6 times with […] (50 mM Tris-HCl, 0.9% NaCl, pH 7.5 at 4° C.). Plates were dried overnight at room temperature, approximately […] of MicroScint™-20 (Perkin Elmer) added and bound radioactivity quantitated via liquid scintillation spectroscopy. Inhibition curves and saturation isotherms were analyzed using GraphPad Prism Software package (GraphPad Software, Inc., San Diego, Calif.). IC50 values were generated from concentration response curves using the Sigmoidal Dose Response (variable slope) algorithm in Prism GraphPad. Kd and Bmax values for the radioligand were generated from saturation isotherms using the Saturation Binding Global Fit algorithm in Prism GraphPad. pKi (negative decadic logarithm of Ki) values for test compounds were calculated from the best-fit IC50 values, and the Kd value of the radioligand, using the Cheng-Prusoff equation (Cheng & Prusoff (1973) Biochem. Pharmacol. 22(23):3099-3108): Ki=IC50/(1+[L]/Kd), where [L]=concentration radioligand.

SERT [2] = molecular target: T2, SERT (Homo sapiens, UniProt P31645); assay: hSERT membrane radioligand binding assay (3H-citalopram); design: expressed in transfected cells; host or cells: HEK-293; conditions: hSERT membranes (HEK-293), 1.0 nM 3H-citalopram; for Ki: read-out: SERT pKi (converted)
Method: as §1, §2, §3, §4, §5
Target sequence in this assay (P31645 whole entry): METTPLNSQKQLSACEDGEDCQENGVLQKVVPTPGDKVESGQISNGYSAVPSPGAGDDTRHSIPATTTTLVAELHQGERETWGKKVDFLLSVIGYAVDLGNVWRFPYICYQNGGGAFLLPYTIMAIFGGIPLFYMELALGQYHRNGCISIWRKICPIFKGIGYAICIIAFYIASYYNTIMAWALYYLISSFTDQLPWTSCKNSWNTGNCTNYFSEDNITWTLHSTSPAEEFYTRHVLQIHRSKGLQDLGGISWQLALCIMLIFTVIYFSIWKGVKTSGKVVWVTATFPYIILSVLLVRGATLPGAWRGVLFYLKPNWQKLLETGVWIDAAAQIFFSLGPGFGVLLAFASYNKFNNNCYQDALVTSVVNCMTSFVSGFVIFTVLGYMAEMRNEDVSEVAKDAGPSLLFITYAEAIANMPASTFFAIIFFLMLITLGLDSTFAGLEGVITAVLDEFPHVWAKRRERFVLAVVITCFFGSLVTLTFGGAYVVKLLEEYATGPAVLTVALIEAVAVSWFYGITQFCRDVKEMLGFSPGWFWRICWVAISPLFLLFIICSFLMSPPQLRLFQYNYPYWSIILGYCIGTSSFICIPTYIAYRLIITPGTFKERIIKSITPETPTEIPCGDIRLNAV

SERT [3] = molecular target: T2, SERT; assay: fluorescence-based serotonin uptake assay (Tsuruda et al. 2010); type: cell-based; conditions: serotonin reuptake inhibition, fluorescence-based assay (data indicated by an asterisk); for IC50: read-out: SERT pIC50 (converted)
Target sequence in this assay (P31645 whole entry, species assumed): as the sequence (P31645 whole entry) above

NET [4] = molecular target: T1, NET; assay: fluorescence-based norepinephrine uptake assay (Tsuruda et al. 2010); type: cell-based; conditions: norepinephrine reuptake inhibition, fluorescence-based assay (data indicated by an asterisk); for IC50: read-out: NET pIC50 (converted)

T1 sequence (P23975 whole entry): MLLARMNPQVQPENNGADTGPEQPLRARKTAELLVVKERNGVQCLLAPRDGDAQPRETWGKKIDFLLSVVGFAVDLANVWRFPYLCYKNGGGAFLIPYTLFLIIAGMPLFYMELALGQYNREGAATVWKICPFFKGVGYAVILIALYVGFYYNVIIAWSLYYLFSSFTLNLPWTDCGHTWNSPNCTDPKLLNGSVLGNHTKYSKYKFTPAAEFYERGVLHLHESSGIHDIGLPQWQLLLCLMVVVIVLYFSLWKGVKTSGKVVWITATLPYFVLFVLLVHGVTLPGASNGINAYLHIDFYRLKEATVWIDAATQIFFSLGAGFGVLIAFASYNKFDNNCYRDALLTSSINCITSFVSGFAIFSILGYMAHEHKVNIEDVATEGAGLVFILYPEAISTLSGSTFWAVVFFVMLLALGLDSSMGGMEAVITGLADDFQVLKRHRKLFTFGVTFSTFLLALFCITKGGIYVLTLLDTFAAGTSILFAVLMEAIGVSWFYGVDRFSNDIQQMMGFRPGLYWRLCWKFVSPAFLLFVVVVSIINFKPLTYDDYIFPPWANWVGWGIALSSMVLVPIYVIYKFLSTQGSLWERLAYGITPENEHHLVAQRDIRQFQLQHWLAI

| Ki (NET [1]) | Ki (SERT [2]) | SMILES | also measured |
| --- | --- | --- | --- |
| ≤ 0.1 µM | ≤ 0.1 µM | COCC(Oc1ccccc1Cl)C1CCNC1 (single isomer, unassigned) [Example 4-1, 3-[1-(2-Chlorophenoxy)-2-methoxyethyl]pyrrolidine] |  |
| ≤ 0.1 µM | ≤ 0.01 µM | COCCC(Oc1ccc(Cl)cc1C)C1CCNC1 (single isomer, unassigned) [5 (1st peak)] |  |
| ≤ 0.01 µM | ≤ 0.1 µM | COC[C@H](Oc1cccc(F)c1Cl)[C@H]1CCNC1 [Example 4-12, (S)-3-[(R)-1-(2-Chloro-3-fluorophenoxy)-2-methoxyethyl]pyrrolidine] |  |
| ≤ 0.1 µM | ≤ 0.01 µM | COC[C@H](Oc1cccc(Cl)c1Cl)[C@@H]1CCNC1 [Example 4-8, (R)-3-[(R)-1-(2,3-Dichlorophenoxy)-2-methoxyethyl]pyrrolidine] |  |
| ≤ 0.1 µM | ≤ 0.1 µM | FC(F)(F)c1cccc(O[C@@H](C2CCOCC2)[C@H]2CCNC2)c1 [Example 13-8, (S)-3-[(S)-(Tetrahydropyran-4-yl)(3-trifluoromethylphenoxy)methyl]pyrrolidine] |  |
| ≤ 0.1 µM | ≤ 0.01 µM | COCC(Oc1cc(Cl)cc(Cl)c1)C1CCNC1 (stereo not shown) [Example 4-29, 3-[1-(3,5-Dichlorophenoxy)-2-methoxyethyl]pyrrolidine] |  |
| ≤ 0.1 µM | ≤ 0.01 µM | FC(F)(F)c1c(Cl)cccc1O[C@@H](C1CCOCC1)[C@@H]1CCNC1 [Example 13-21, (R)-3-[(S)-(3-Chloro-2-trifluoromethylphenoxy)(tetrahydropyran-4-yl)-methyl]-pyrrolidine] |  |
| ≤ 0.1 µM | ≤ 0.1 µM | Fc1cccc(O[C@@H](C2CCOCC2)[C@@H]2CCNC2)c1 [Example 13-5, (R)-3-[(S)-(3-Fluorophenoxy)(tetrahydropyran-4-yl)methyl]pyrrolidine] |  |

Second part, the compound before the results:

| SMILES | Ki (NET [1]) | Ki (SERT [2]) | also measured |
| --- | --- | --- | --- |
| FC(F)(F)c1cc(Cl)ccc1O[C@H](C1CCOCC1)[C@@H]1CCNC1 [Example 13-23, (R)-3-[(R)-(4-Chloro-2-trifluoromethylphenoxy)(tetrahydropyran-4-yl)methyl]pyrrolidine] | ≤ 0.1 µM | ≤ 0.01 µM |  |
| COCC(Oc1ccccc1Cl)C1CCNC1 (single isomer, unassigned) [Example 4-2, 3-[1-(2-Chlorophenoxy)-2-methoxyethyl]pyrrolidine] | ≤ 0.01 µM |  | SERT pKi (SERT [2]): ≧7.0 |
| COCC(Oc1ccc(Cl)cc1)C1CCNC1 (stereo not shown) [Example 4-4, 3-[1-(4-Chlorophenoxy)-2-methoxyethyl]pyrrolidine] | ≤ 0.1 µM | ≤ 0.01 µM |  |
| Cc1c(Cl)cccc1O[C@@H](COC(C)C)[C@@H]1CCNC1 [Example 9-25, (R)-3-[(R)-1-(3-Chloro-2-methylphenoxy)-2-isopropoxyethyl]pyrrolidine] |  |  | SERT pIC50 (SERT [3]): ≧8.0*; SERT pKi (SERT [2]): ≧8.0 |
| Clc1cccc(Cl)c1O[C@H](C1CCOCC1)[C@H]1CCNC1 [Example 13-25, (S)-3-[(R)-(2,6-Dichlorophenoxy)(tetrahydropyran-4-yl)methyl]pyrrolidine] | ≤ 0.1 µM | ≤ 0.1 µM |  |
| FC(F)(F)c1cccc(O[C@H](C2CCOCC2)[C@@H]2CCNC2)c1 [Example 13-7, (R)-3-[(R)-(Tetrahydropyran-4-yl)(3-trifluoromethylphenoxy)methyl]pyrrolidine] | ≤ 0.1 µM | ≤ 0.1 µM |  |
| Clc1ccccc1O[C@H](C1CCOCC1)[C@@H]1CCNC1 [Example 13-2, (R)-3-[(R)-(2-Chlorophenoxy)(tetrahydropyran-4-yl)methyl]pyrrolidine] | ≤ 0.01 µM | ≤ 0.1 µM |  |
| Clc1cccc(Cl)c1O[C@@H](C1CCOCC1)[C@@H]1CCNC1 [Example 13-27, (R)-3-[(S)-(2,6-Dichlorophenoxy)(tetrahydropyran-4-yl)methyl]pyrrolidine] | ≤ 0.01 µM | ≤ 0.1 µM |  |
| COC[C@@H](Oc1c(Cl)cccc1Cl)[C@H]1CCNC1 [Example 4-27, (S)-3-[(S)-1-(2,6-Dichlorophenoxy)-2-methoxyethyl]pyrrolidine] | ≤ 0.1 µM | ≤ 0.1 µM |  |
| COC[C@H](Oc1cccc(Cl)c1C)[C@@H]1CCNC1 [Example 4-17, (R)-3-[(R)-1-(3-Chloro-2-methylphenoxy)-2-methoxyethyl]pyrrolidine] | ≤ 0.1 µM | ≤ 0.01 µM |  |
| Clc1cc(Cl)cc(O[C@@H](C2CCOCC2)[C@H]2CCNC2)c1 [Example 13-28, (S)-3-[(S)-(3,5-Dichlorophenoxy)(tetrahydropyran-4-yl)methyl]pyrrolidine] | ≤ 0.1 µM | ≤ 0.01 µM |  |
| CSCCC(Oc1cccc(Cl)c1Cl)C1CCNC1 (mixture of isomers) [Example 20, 3-[1-(2,3-Dichlorophenoxy)-3-methylsulfanylpropyl]pyrrolidine] | ≤ 0.01 µM | ≤ 0.01 µM |  |
| CCOC[C@@H](Oc1ccc(Cl)cc1Cl)[C@H]1CCNC1 [Example 7-17, (S)-3-[(S)-1-(2,4-Dichlorophenoxy)-2-ethoxyethyl]pyrrolidine] |  |  | IC50 (SERT [3]): ≤ 0.01 µM; IC50 (NET [4]): ≤ 0.1 µM |
| CCSC[C@@H](Oc1ccc(Cl)cc1Cl)[C@H]1CCNC1.O=C(O)C(F)(F)F [Example 17-8] |  |  | SERT pIC50 (SERT [3]): ≧8.0*; NET pIC50 (NET [4]): ≧8.0* |
| CSC[C@@H](Oc1cccc(Cl)c1C)[C@H]1CCNC1.O=C(O)C(F)(F)F [Example 15-6] |  |  | SERT pIC50 (SERT [3]): ≧8.0*; NET pIC50 (NET [4]): ≧8.0* |
| CCOC[C@H](Oc1cc(F)cc(Cl)c1)[C@H]1CCNC1 [Example 7-28, (S)-3-[(R)-1-(3-Chloro-5-fluorophenoxy)-2-ethoxyethyl]pyrrolidine] |  |  | IC50 (SERT [3]): ≤ 0.1 µM; IC50 (NET [4]): ≤ 0.01 µM |
| CC(C)OC[C@H](Oc1ccc(Cl)cc1Cl)[C@H]1CCNC1 [Example 8, (S)-3-[(R)-1-(2,4-Dichlorophenoxy)-2-isopropoxyethyl]pyrrolidine] |  |  | IC50 (SERT [3]): ≤ 0.01 µM; IC50 (NET [4]): ≤ 0.01 µM |
| CCSC[C@@H](Oc1cccc(C(F)(F)F)c1)[C@H]1CCNC1.O=C(O)C(F)(F)F [Example 17-12] |  |  | SERT pIC50 (SERT [3]): ≧8.0*; NET pIC50 (NET [4]): ≧7.0* |
| CCOC[C@H](Oc1ccc(C(F)(F)F)cc1)[C@H]1CCNC1 [Example 7-6, (S)-3-[(R)-2-Ethoxy-1-(4-trifluoromethylphenoxy)ethyl]pyrrolidine] |  |  | IC50 (SERT [3]): ≤ 0.01 µM; IC50 (NET [4]): ≤ 0.1 µM |
| CCOC[C@H](Oc1cccc(F)c1Cl)[C@H]1CCNC1 [Example 7-9, (S)-3-[(R)-1-(2-Chloro-3-fluorophenoxy)-2-ethoxyethyl]pyrrolidine] |  |  | IC50 (SERT [3]): ≤ 0.1 µM; IC50 (NET [4]): ≤ 0.01 µM |
| CC(C)SC[C@H](Oc1cccc(Cl)c1Cl)[C@H]1CCNC1 [Example 19-1, (S)-3-[(R)-1-(2,3-Dichlorophenoxy)-2-isopropylsulfanylethyl]pyrrolidine] |  |  | IC50 (SERT [3]): ≤ 0.01 µM; IC50 (NET [4]): ≤ 0.01 µM |
| Cc1c(Cl)cccc1O[C@H](COC(C)C)[C@H]1CCNC1 [Example 9-15, (S)-3-[(S)-1-(3-Chloro-2-methylphenoxy)-2-isopropoxyethyl]pyrrolidine] |  |  | IC50 (SERT [3]): ≤ 0.01 µM; IC50 (NET [4]): ≤ 0.01 µM |
| CCOC[C@H](Oc1ccc(F)cc1)[C@H]1CCNC1 [Example 7-5, (S)-3-[(R)-2-Ethoxy-1-(4-fluorophenoxy)ethyl]pyrrolidine] |  |  | IC50 (SERT [3]): ≤ 0.1 µM; IC50 (NET [4]): ≤ 0.1 µM |
| CCSC[C@@H](Oc1cccc(Cl)c1Cl)[C@H]1CCNC1.O=C(O)C(F)(F)F [Example 17-2] |  |  | SERT pIC50 (SERT [3]): ≧8.0*; NET pIC50 (NET [4]): ≧8.0* |
